The test system of one series is S. aureus. The series can be described thus: Rapid antimicrobial activity: test gel/base mixed with culture and bovine adult serum, 15 seconds, colony count. The series is classed as cell-based, Staphylococcus aureus. Particulars: for S. aureus (cfu/tube) / Growth (CFU/ml): control 1 × 10^8; for Growth (cfu/tube): Table 7, control (without gel base) 2.5-4.2 × 10^8; for antimicrobial activity against S. aureus (in words): Tables 1 and 2.

For series [1] the following is noted: at 22° C.; cited from earlier work.
[2] abbreviates: Table 3, alcohol gel base, 15 seconds.
Setting [3] is: Table 2, alcohol gel base, 15 seconds.
[4] abbreviates: Table 5, alcohol gel base, 15 seconds.
Setting [5] is: Table 10, aqueous base of Example 8, 15 seconds, aqueous base control 5.0 × 10^8.
[6] abbreviates: Table 1, alcohol gel base of Example 1, 15 seconds, bovine adult serum.
The mark [7] stands for this setting: Table 1, alcohol gel base, 15 seconds.

Like-named read-outs stand apart in the source and are kept apart here.

Experimental for S. aureus: Antimicrobial activity was evaluated using the following assay. 1 milliliter of 10^8 colony-forming units (“cfus”) of test organism per milliliter was added to 1 milliliter of bovine adult serum in a sterile culture tube and mixed. 1 milliliter of the test gel was added to each tube, and was vortexed to mix. After 15 seconds, three 0.5 ml aliquots were removed and further diluted 1:1000 with LTSB (lecithin-containing trypticase soy broth) drug-inactivating medium, and, of the resulting liquid, 0.5 milliliters were plated on each trypticase soy agar (“TSA”) plate. The resulting plates were incubated at 37° C. for 24 hours and the colony count per tube was determined.

For the compound `N=C(NCCCCCCNC(=N)NC(=N)Nc1ccc(Cl)cc1)NC(=N)Nc1ccc(Cl)cc1.O=C(O)[C@H](O)[C@@H](O)[C@H](O)[C@H](O)CO.O=C(O)[C@H](O)[C@@H](O)[C@H](O)[C@H](O)CO` [0.5% CHG, chlorhexidine digluconate], in the series on S. aureus (setting [2]), the “Log 10 cfu reduction relative to control” value turned out to be 1.4 log 10, the “fold reduction relative to control” value was 23.8 fold and the “S. aureus (cfu/tube)” value is given as 4.2 × 10^6 cfu/tube.

As for benzalkonium chloride [0.12% BZK], in the series with S. aureus (setting [3]), the “Log 10 cfu reduction relative to control” value stood at 0.8 log 10, the “fold reduction relative to control” value worked out at 6.25 fold and the “S. aureus (cfu/tube)” value was 1.6 × 10^7 cfu/tube. For the same compound, in the series on S. aureus (setting [4]), the “fold reduction relative to control” value is on record as 6.25 fold and the “Growth (CFU/ml)” value was 1.6 × 10^7 CFU/ml. Further, the “Growth (cfu/tube)” value with S. aureus (alcohol gel base, 15 seconds) is 1.6 × 10^7 cfu/tube. For the same compound, the “Staphylococcus aureus (CFU/tube)” value in the series with S. aureus (setting [5]) was 2.0 × 10^8 CFU/tube. Moreover, the “antimicrobial activity against S. aureus (in words)” value in the series with S. aureus (alcohol gel base) was “minimal or no antimicrobial activity”.

On to povidone iodine [1.0% PVI], for which, in the series on S. aureus (setting [4]), the “fold reduction relative to control” value is on record as 5 fold and the “Growth (CFU/ml)” value is 2.0 × 10^7 CFU/ml.

For `CCCCC(CC)COCC(O)CO` (stereo not drawn) [0.5% Sensiva, glycerol 1-(2-ethylhexyl)ether], in the series with S. aureus (setting [6]), the “S. aureus (cfu/tube)” value is listed as 1 × 10^7 cfu/tube. Moreover, the “fold-reduction relative to control” value with S. aureus (setting [7]) was 2.5 fold. Besides, the “Growth (cfu/tube)” value in the series on S. aureus (alcohol gel base, 15 seconds) was 4.0 × 10^7 cfu/tube.

Regarding `N=C(NCCCCCCNC(=N)NC(=N)Nc1ccc(Cl)cc1)NC(=N)Nc1ccc(Cl)cc1.O=C(O)[C@H](O)[C@@H](O)[C@H](O)[C@H](O)CO.O=C(O)[C@H](O)[C@@H](O)[C@H](O)[C@H](O)CO` [0.05% CHG, chlorhexidine digluconate], in the series on S. aureus (setting [2]), the “Log 10 cfu reduction relative to control” value was 1.0 log 10, the “fold reduction relative to control” value is reported as 9 fold and the “S. aureus (cfu/tube)” value was 1.1 × 10^7 cfu/tube. Also, in the series with S. aureus (setting [4]), the “fold reduction relative to control” value was 9 fold and the “Growth (CFU/ml)” value is 1.1 × 10^7 CFU/ml. In the series with S. aureus (alcohol gel base, 15 seconds), the “Growth (cfu/tube)” value was 1.1 × 10^7 cfu/tube. The “Staphylococcus aureus (CFU/tube)” value in the series with S. aureus (setting [5]) is listed as 2.5 × 10^8 CFU/tube.

As to `N=C(NCCCCCCNC(=N)NC(=N)Nc1ccc(Cl)cc1)NC(=N)Nc1ccc(Cl)cc1.O=C(O)[C@H](O)[C@@H](O)[C@H](O)[C@H](O)CO.O=C(O)[C@H](O)[C@@H](O)[C@H](O)[C@H](O)CO` [0.25% CHG, chlorhexidine digluconate], in the series on S. aureus (setting [2]), the “Log 10 cfu reduction relative to control” value was determined as 1.1 log 10, the “fold reduction relative to control” value turned out to be 12.5 fold and the “S. aureus (cfu/tube)” value is listed as 8 × 10^6 cfu/tube.

Take `CCCCC(CC)COCC(O)CO` (stereo not drawn) [5.0% Sensiva, glycerol 1-(2-ethylhexyl)ether]: the “S. aureus (cfu/tube)” value with S. aureus (setting [6]) was 1 × 10^6 cfu/tube. The “fold-reduction relative to control” value in the series with S. aureus (setting [7]) is listed as 100 fold.

Turning to `Clc1ccc(COC(Cn2ccnc2)c2ccc(Cl)cc2Cl)c(Cl)c1` (stereo not drawn) [1.0% Miconazole, miconazole], in the series on S. aureus (setting [4]), the “fold reduction relative to control” value was 0 fold and the “Growth (CFU/ml)” value is 1.0 × 10^8 CFU/ml.

As for `CCCCC(CC)COCC(O)CO` (stereo not drawn) [1.0% Sensiva, glycerol 1-(2-ethylhexyl)ether], the “S. aureus (cfu/tube)” value in the series with S. aureus (setting [6]) is on record as 4 × 10^7 cfu/tube. For the same compound, in the series on S. aureus (setting [7]), the “fold-reduction relative to control” value is on record as 9 fold. Further, in the series on S. aureus (setting [3]), the “Log 10 cfu reduction relative to control” value is given as 1 log 10, the “fold reduction relative to control” value was found to be 10 fold and the “S. aureus (cfu/tube)” value is given as 4 × 10^7 cfu/tube. In addition, the “Growth (cfu/tube)” value in the series with S. aureus (alcohol gel base, 15 seconds) is reported as 1.0 × 10^7 cfu/tube. Moreover, the “Staphylococcus aureus (CFU/tube)” value in the series on S. aureus (setting [5]) is reported as 5.0 × 10^8 CFU/tube.

On to polyhexamethylene biguanide [0.3% PHMB], for which the “Staphylococcus aureus (CFU/tube)” value in the series with S. aureus was 1.0 × 10^7 CFU/tube. In the series on S. aureus (setting [4]), the “fold reduction relative to control” value is reported as 33 fold and the “Growth (CFU/ml)” value is on record as 3.0 × 10^6 CFU/ml.

benzalkonium chloride [0.5% BZK]: in the series on S. aureus (setting [3]), the “Log 10 cfu reduction relative to control” value is reported as 1.4 log 10, the “fold reduction relative to control” value is given as 27 fold and the “S. aureus (cfu/tube)” value is listed as 3.7 × 10^6 cfu/tube.

For `CCCCC(CC)COCC(O)CO` (stereo not drawn) [3.0% Sensiva, glycerol 1-(2-ethylhexyl)ether], the “S. aureus (cfu/tube)” value in the series on S. aureus (setting [6]) is listed as 1 × 10^6 cfu/tube. In addition, in the series with S. aureus (setting [7]), the “fold-reduction relative to control” value amounted to 100 fold.

Take `Oc1cc(Cl)ccc1Oc1ccc(Cl)cc1Cl` [0.3% TC, triclosan]: in the series on S. aureus (setting [4]), the “fold reduction relative to control” value turned out to be 0 fold and the “Growth (CFU/ml)” value was 1.0 × 10^8 CFU/ml.

As for `CCCCC(CC)COCC(O)CO` (stereo not drawn) [Sensiva SC 50, glycerol 1-(2-ethylhexyl)ether], in series [1], the water solubility entry was “approximately 1.8 g/l”.

As to neomycin [0.3% Neomycin], in the series with S. aureus (setting [4]), the “fold reduction relative to control” value stood at 4.3 fold and the “Growth (CFU/ml)” value was 2.3 × 10^7 CFU/ml.

Consider benzalkonium chloride [0.019% BZK], for which the “Growth (cfu/tube)” value with S. aureus (alcohol gel base, 15 seconds) is recorded as 8.0 × 10^7 cfu/tube.

For `CC(C)(C)CC(C)(C)c1ccc(OCCOCC[N+](C)(C)Cc2ccccc2)cc1` [0.12% BZT, benzethonium chloride], in the series with S. aureus (setting [4]), the “fold reduction relative to control” value is 10 fold and the “Growth (CFU/ml)” value was 1.0 × 10^7 CFU/ml.

On to benzalkonium chloride [0.19% BZK], for which, in the series with S. aureus (setting [3]), the “Log 10 cfu reduction relative to control” value was 0.7 log 10, the “fold reduction relative to control” value is 5 fold and the “S. aureus (cfu/tube)” value is reported as 2 × 10^7 cfu/tube. Further, the “antimicrobial activity against S. aureus (in words)” value in the series with S. aureus (alcohol gel base) is recorded as “minimal or no antimicrobial activity”.

Take `CCCCC(CC)COCC(O)CO` (stereo not drawn) [2.0% Sensiva, glycerol 1-(2-ethylhexyl)ether]: in the series on S. aureus (setting [6]), the “S. aureus (cfu/tube)” value was 3 × 10^6 cfu/tube. Moreover, the “fold-reduction relative to control” value in the series on S. aureus (setting [7]) was 33 fold. Also, in the series on S. aureus (setting [3]), the “Log 10 cfu reduction relative to control” value is 1.5 log 10, the “fold reduction relative to control” value was determined as 33 fold and the “S. aureus (cfu/tube)” value is 3 × 10^6 cfu/tube. In addition, in the series with S. aureus (setting [4]), the “fold reduction relative to control” value amounted to 33 fold and the “Growth (CFU/ml)” value is given as 3 × 10^6 CFU/ml. The “Fold Reduction Compared to Control” value in the series with S. aureus (Table 6, alcohol gel base, 15 seconds) is recorded as 33 fold. The “Growth (CFU/ML)” value with S. aureus (Table 6, alcohol gel base, 15 seconds, control 1.0 × 10^8) was 3.0 × 10^6 CFU/ML.

Values taken from US8293802B2, “Gentle-acting skin-disinfectants and hydroalcoholic gel formulations” (The Trustees of Columbia University, priority 2001, dated 2012).
